Measured values as given in patent US11807634B2, “Cyclopropyl dihydroquinoline sulfonamide compounds” (AMGEN INC., priority 2020, dated 2023).
pIC50: −log10 of the molar value.

What was measured:
[1] = system: CYP3A4; experiment: Human CYP 3A4 induction assay (mRNA, cryopreserved human hepatocytes); assay type: in vitro ADME
Experimental: Human CYP 3A4 Induction Assay
Cryopreserved human hepatocytes were seeded in 96-well collagen coated plates at 70,000 cells per well in hepatocyte plating media (HPM, final concentrations: 1× Dulbecco's Modified Eagle's Medium, 0.1 μM dexamethasone, 10% fetal bovine serum, 1× ITS, 1×PSG) followed by incubation at 37° C. under 5% CO2 and 90% relative humidity for 2 days to allow hepatocytes to form a confluent layer. On Day 3, hepatocytes were treated with either test compound or rifampin (20 μM, positive control for CYP3A induction) prepared in hepatocyte incubation media ((HIM, final concentrations: 1× William's Medium E, 0.1 μM dexamethasone, 1×ITS, 1×PSG). Treatment was performed for 72 hours with either 2 concentrations (2 μM or 10 μM) or a range of concentrations (0.001 μM to 100 μM) of the test compound to obtain full dose-response curve. Fresh media containing the relevant concentrations of the test compound was replaced every day until the samples were processed. After 72 hours of incubation, samples were processed for mRNA analysis using bDNA technology using manufacturer's instructions (Affymetrix, Fremont, Calif.). Cell viability was tested at the end of the experiment using MTT assay kit (Roche Diagnostics, Basel, Switzerland). Data was analyzed and presented as percent of control (POC) and Emax and EC50 obtained when appropriate according to guidance from Center for Drug Evaluation and Research (CDER), 2006, Guidance for Industry, Drug Interaction Studies—Study Design, Data Analysis, and Implications for Dosing and Labeling.
Cryopreserved human hepatocytes were seeded in 96-well collagen coated plates at 70,000 cells per well in hepatocyte plating media (HPM, final concentrations: 1× Dulbecco's Modified Eagle's Medium, 0.1 μM dexamethasone, 10% fetal bovine serum, 1×ITS, 1×PSG) followed by incubation at 37° C. under 5% CO2 and 90% relative humidity for 2 days to allow hepatocytes to form a confluent layer. On Day 3, hepatocytes were treated with either test compound or rifampin (20 μM, positive control for CYP3A induction) prepared in hepatocyte incubation media ((HIM, final concentrations: 1× William's Medium E, 0.1 μM dexamethasone, 1×ITS, 1×PSG). Treatment was performed for 72 hours with either 2 concentrations (2 μM or 10 μM) or a range of concentrations (0.001 μM to 100 μM) of the test compound to obtain full dose-response curve. Fresh media containing the relevant concentrations of the test compound was replaced every day until the samples were processed. After 72 hours of incubation, samples were processed for mRNA analysis using bDNA technology using manufacturer's instructions (Affymetrix, Fremont, Calif.). Cell viability was tested at the end of the experiment using MTT assay kit (Roche Diagnostics, Basel, Switzerland). Data was analyzed and presented as percent of control (POC) and Emax and EC50 obtained when appropriate, as described in Halladay, J. et al, 2012, An “all-inclusive” 96-well cytochrome P450 induction method: Measuring enzyme activity, mRNA levels, protein levels, and cytotoxicity from one well using cryopreserved human hepatocytes, Pharmacological and Toxicological Methods, 66:270-275.
The cytochrome P450 (CYP) is a well-known superfamily of enzymes that are responsible for the oxidative and reductive metabolic transformation of medications used in clinical practice. In addition, the CYP enzymes are commonly associated with causing many clinically relevant drug-drug interactions. Of the CYP enzymes, CYP3A4 is not only the most prevalent CYP enzyme in the liver and intestine, but is responsible for metabolism and elimination of approximately 50% of marketed drugs. In addition, CYP3A4 activity can be induced (or increased) or inhibited (decreased) in response to administration of certain drugs, thereby affecting concentrations of their own or certain concomitant drugs present in the body. […]

[2] = target: T1, Human NaV1.7 (Homo sapiens, UniProt Q15858); experiment: Ionworks Barracuda (IWB) automated patch clamp assay; assay type: cell-based; conditions: human NaV1.7 currents in HEK cells, population patch clamp, state- and use-dependent voltage protocol; read-out: hNaV1.7 IWB-U IC50
T1 construct: expressed in transfected cells; host or cells: Spiking HEK cells (without Kir2.1 transfection)
Experimental: Ionworks Barracuda (IWB) Automated Patch Clamp Assay (Same Protocol for Both Hu Man and Mouse)
Human NaV1.7 currents were recorded in population patch-clamp mode with the IWB automated electrophysiology system (Molecular Devices, LLC, Sunnyvale, Calif.). Spiking HEK cells (without Kir2.1 transfection) were cultured and prepared for recordings as previously described for IonWorks Quattro testing^1. The external solution consisted of the following (in mM): NaCl 140, KCl 5, CaCl2 2, MgCl2 1, HEPES 10, and glucose 11, pH 7.4, with N-methyl-D-glucamine at 320 mOsmol. […] From a holding potential of −110 mV, currents were elicited by a train of 26 depolarizations of 150 ms duration to −20 mV at a frequency of 5 Hz. Cells were then clamped to −20 mV for a period of 4 minutes in the presence of a single concentration of test compound. Following this compound incubation period, cells were clamped to −110 mV for three seconds to recover unbound channels and put through the same 26 pulse voltage protocol as above. Peak inward current during the 26th pulse to −20 mV in the presence of compound was divided by the peak inward current evoked by the 26th pulse to −20 mV in the absence of compound to determine percent inhibition. Concentration-response curves of percent inhibition as a function of concentration were generated to calculate IC50 values as described in Kornecook, T. J.; Yin, R.; Altmann, S.; et al. Pharmacologic Characterization of AMG8379, a Potent and Selective Small Molecule Sulfonamide Antagonist of the Voltage-Gated Sodium Channel NaV1. 7.
The potency of the compounds of the present invention were evaluated on human NaV1.7 channels using the above described IonWorks Barracuda automated electrophysiology platform that evaluates the ability of compounds to block sodium conductance through NaV1.7 channels. A voltage-protocol that prosecutes both state-dependent as well as use-dependent inhibition was used as these modes of action are thought to be more relevant for the native state of NaV1.7 channels in pain sensing neurons in vivo.

[3] = human hepatocytes, 10 uM test compound, 72 hours, mRNA, percent of control (rifampin positive control)

T1 sequence (Q15858 whole entry): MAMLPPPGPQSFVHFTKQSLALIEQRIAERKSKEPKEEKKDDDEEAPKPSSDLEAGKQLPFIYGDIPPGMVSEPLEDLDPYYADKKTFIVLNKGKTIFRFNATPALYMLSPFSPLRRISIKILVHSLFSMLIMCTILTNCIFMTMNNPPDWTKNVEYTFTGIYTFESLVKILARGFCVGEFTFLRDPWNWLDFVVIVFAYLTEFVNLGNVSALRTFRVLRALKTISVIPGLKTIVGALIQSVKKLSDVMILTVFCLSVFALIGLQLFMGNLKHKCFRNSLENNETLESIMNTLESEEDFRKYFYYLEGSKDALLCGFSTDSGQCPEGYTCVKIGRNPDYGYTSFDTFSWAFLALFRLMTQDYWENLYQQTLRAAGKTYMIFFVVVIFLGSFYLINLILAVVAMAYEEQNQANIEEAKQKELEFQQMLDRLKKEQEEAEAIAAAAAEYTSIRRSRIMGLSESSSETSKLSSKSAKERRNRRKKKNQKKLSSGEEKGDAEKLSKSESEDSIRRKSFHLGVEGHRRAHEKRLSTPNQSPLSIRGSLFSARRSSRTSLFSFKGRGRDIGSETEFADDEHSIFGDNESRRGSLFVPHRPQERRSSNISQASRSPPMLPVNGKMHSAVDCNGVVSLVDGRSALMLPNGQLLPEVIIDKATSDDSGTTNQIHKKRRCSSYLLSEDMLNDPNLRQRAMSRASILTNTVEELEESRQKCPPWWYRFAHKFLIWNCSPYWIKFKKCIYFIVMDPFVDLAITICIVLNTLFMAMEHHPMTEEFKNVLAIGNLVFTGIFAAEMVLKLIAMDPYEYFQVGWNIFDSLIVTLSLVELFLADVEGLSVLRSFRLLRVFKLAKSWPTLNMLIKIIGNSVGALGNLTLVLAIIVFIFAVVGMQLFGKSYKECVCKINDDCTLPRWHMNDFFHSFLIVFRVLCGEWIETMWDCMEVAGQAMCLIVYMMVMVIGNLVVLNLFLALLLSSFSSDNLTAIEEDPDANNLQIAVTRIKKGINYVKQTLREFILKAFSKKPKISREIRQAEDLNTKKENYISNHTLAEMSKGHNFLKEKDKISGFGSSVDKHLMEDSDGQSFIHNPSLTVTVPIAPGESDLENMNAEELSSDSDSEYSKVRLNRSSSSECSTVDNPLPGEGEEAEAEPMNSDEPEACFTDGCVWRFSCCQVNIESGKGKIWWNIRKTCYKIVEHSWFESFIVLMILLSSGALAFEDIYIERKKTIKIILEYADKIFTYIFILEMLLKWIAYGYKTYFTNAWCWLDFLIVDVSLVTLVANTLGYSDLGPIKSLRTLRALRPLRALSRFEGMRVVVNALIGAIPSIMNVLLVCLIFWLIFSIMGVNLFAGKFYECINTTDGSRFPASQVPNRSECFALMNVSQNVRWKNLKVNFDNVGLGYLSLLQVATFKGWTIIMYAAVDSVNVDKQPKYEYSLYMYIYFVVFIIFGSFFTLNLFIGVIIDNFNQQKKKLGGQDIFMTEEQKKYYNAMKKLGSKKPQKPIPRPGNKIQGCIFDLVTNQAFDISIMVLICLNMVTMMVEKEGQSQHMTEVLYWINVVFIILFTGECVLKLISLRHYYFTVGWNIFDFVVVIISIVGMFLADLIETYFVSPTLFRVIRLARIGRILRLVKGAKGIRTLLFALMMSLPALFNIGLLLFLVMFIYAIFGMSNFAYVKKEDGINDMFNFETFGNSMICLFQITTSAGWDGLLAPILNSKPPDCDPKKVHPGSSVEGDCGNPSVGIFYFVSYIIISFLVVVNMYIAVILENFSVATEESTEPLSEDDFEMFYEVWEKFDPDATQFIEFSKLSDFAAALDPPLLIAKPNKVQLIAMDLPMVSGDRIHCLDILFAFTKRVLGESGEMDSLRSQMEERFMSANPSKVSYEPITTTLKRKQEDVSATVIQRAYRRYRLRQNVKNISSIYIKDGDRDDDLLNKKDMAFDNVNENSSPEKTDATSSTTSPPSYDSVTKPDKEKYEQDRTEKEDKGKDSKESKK

CYP3A4 mRNA Induct Hu 10 uM POC [1, 3] [%] | pIC50 [2] | CYP3A4 mRNA Induct Hu 10 uM POC ([1]; hepatocytes) [%] | Structure (SMILES)
24.57 | 8.10 |  | COc1cc([C@@H]2C[C@H]2C(F)(F)F)c(F)cc1-n1c(=O)ccc2cc(S(=O)(=O)Nc3ccon3)c(F)cc21 (single isomer, unassigned) [Example 45]
139.9 | 8.40 |  | COc1cc([C@H]2C[C@@H]2COC(F)(F)F)c(F)cc1-n1c(=O)ccc2cc(S(=O)(=O)Nc3ccon3)ccc21 (atropisomer, axis not shown; (P)) [Example 33, (P)-1-(5-fluoro-2-methoxy-4-((1S,2S)-2-((trifluoromethoxy)methyl)cyclopropyl)phenyl)-N-(isoxazol-3-yl)-2-oxo-1,2-dihydroquinoline-6-sulfonamide]
35.39 | 7.72 |  | COc1cc([C@@H]2C[C@H]2C(F)(F)F)c(C)cc1-n1c(=O)ccc2cc(S(=O)(=O)Nc3ccon3)ccc21 (atropisomer, axis not shown; (P)) [Example 26, (P)-N-(isoxazol-3-yl)-1-(2-methoxy-5-methyl-4-((1R,2R)-2-(trifluoromethyl)cyclopropyl)phenyl)-2-oxo-1,2-dihydroquinoline-6-sulfonamide]
46.59 | 7.72 |  | COc1cc([C@@H]2C[C@H]2C(F)(F)F)c(Cl)cc1-n1c(=O)ccc2cc(S(=O)(=O)Nc3cccnn3)ccc21 (atropisomer, axis not shown; (P)) [Example 14, (P)-1-(5-chloro-2-methoxy-4-((1R,2R)-2-(trifluoromethyl)cyclopropyl)phenyl)-2-oxo-N-(pyridazin-3-yl)-1,2-dihydroquinoline-6-sulfonamide]
 | 7.59 | 60.34 | COc1cc([C@H]2C[C@H]2C2CC2)c(F)cc1-n1c(=O)ccc2cc(S(=O)(=O)Nc3ccon3)ccc21 (atropisomer, axis not shown; (P)) [Example 30, (P)-1-(4-((1S,2S)-[1,1′-bi(cyclopropan)]-2-yl)-5-fluoro-2-methoxyphenyl)-N-(isoxazol-3-yl)-2-oxo-1,2-dihydroquinoline-6-sulfonamide]

Structure (SMILES) | CYP3A4 mRNA Induct Hu 10 uM POC [1, 3] [%] | pIC50 [2] | CYP3A4 mRNA Induct Hu 10 uM POC ([1]; hepatocytes) [%]
COc1cc([C@@H]2C[C@H]2COC(F)(F)F)c(F)cc1-n1c(=O)ccc2cc(S(=O)(=O)Nc3ccon3)ccc21 (atropisomer, axis not shown; (P)) [Example 32, (P)-1-(5-fluoro-2-methoxy-4-((1R,2R)-2-((trifluoromethoxy)methyl)cyclopropyl)phenyl)-N-(isoxazol-3-yl)-2-oxo-1,2-dihydroquinoline-6-sulfonamide] | 64.54 | 8.05 | 
COc1cc([C@@H]2C[C@H]2C(F)(F)F)c(F)cc1-n1c(=O)ccc2cc(S(=O)(=O)Nc3nncs3)ccc21 (atropisomer, axis not shown; (P)) [Example 40, (P)-1-(5-fluoro-2-methoxy-4-((1R,2R)-2-(trifluoromethyl)cyclopropyl)phenyl)-2-oxo-N-(1,3,4-thiadiazol-2-yl)-1,2-dihydroquinoline-6-sulfonamide] |  | 8.10 | 
